What was measured:
[1] = test system: guinea pigs; assay: Antitussive assay: citric acid aerosol-induced cough in conscious guinea pigs, intragastric administration; format: in vivo, guinea pig; details: 0.5 M citric acid aerosol for 10 min, versus 1st challenge, HCl salt form in saline
Method: Unrestrained conscious guinea pigs were individually placed in a transparent Perspex airtight chamber and exposed to 0.5 M citric acid aerosol produced by an ultrasonic nebulizer (NEU12, Omron, Tokyo, Japan) for 10 min with a flow rate of 0.6 ml/min. During the 10 min observation period, the animals were continuously observed, and the numbers and timing of typical body movement of cough responses including opening the mouth, contraction of thoracic and abdomen muscles and a jerking of the front body were noted. The cough sounds were concurrently picked up via a microphone which connected to a personal computer and analyzed by Cool Edit 2000 software (Syntrillium, Phenix, USA). Thus a cough response can be differentiated from a sneeze and other background noises by observation of body movements, cough sound from loudspeakers and wave patterns recorded in the computer. Animals producing cough more than 18 times but less than 30 in the first challenge were selected for further antitussive tests. Cough episodes during the first challenge were recorded as control data. After 72 hour recovery, the selected sensitive animals were randomly divided into several groups with six animals in each group. The test samples were changed to their salt forms with 4% HCl to dissolve in saline and administrated intragastrically.
In the present experiments, neotuberostemonine produced a reduction in cough episodes by 17 and 40% (P<0.01 versus 1st challenge) at 25 and 50 mg/kg i.g., respectively. […] These two alkaloids are different from neotuberostemonine in molecular skeletons (i.e., base structures). Neotuberostemonine belongs to the stenine group while croomine and stemoninine belong to the tuberostemospironine and stemoamide groups, respectively. […] Since croomine and stemoninine are the major components of Radix Stemonae, they provided scientific evidence for the use of Radix Stemonae for cough treatment in folk medicines and in PRC Pharmacopeia.

[2] = test system: cough; details: intraperitoneal, at the same dosage; Chung et al., Planta Med. 2003; cited from earlier work

| SMILES | reduction in cough episodes ([1]; 25 mg/kg i.g.) | reduction in cough episodes ([1]; 50 mg/kg i.g.) | inhibition (of cough) [2] |
| --- | --- | --- | --- |
| CC[C@H]1[C@H]2[C@@H](CCCN3[C@H]2CC[C@H]3[C@@H]2C[C@H](C)C(=O)O2)O[C@]12C=C(C)C(=O)O2 [Stemoninine] | 32% | 66% |  |
| C[C@@H]1C[C@]2(CCCCN3[C@H]2CC[C@H]3[C@@H]2C[C@H](C)C(=O)O2)OC1=O [croomine, Croomine] | 35% | 57% |  |
| CC[C@@H]1[C@H]2CCCCN3[C@H]2[C@@H](C[C@H]3[C@@H]2C[C@H](C)C(=O)O2)[C@H]2[C@@H]1OC(=O)[C@H]2C [neotuberostemonine, reference compound] | 17% | 40% | 85% |
